Source: publication PMC6609544 (British Journal of Pharmacology, 2019)
Positions count from the first letter of the chain named.

Tests used:
[1] = biological target: T1, Kv12.1(H462Y) (Homo sapiens, UniProt Q96L42, H462Y); assay: whole-cell patch clamp in transfected CHO cells; type: cell-based
T1 sequence (Q96L42 1-1107 H462Y): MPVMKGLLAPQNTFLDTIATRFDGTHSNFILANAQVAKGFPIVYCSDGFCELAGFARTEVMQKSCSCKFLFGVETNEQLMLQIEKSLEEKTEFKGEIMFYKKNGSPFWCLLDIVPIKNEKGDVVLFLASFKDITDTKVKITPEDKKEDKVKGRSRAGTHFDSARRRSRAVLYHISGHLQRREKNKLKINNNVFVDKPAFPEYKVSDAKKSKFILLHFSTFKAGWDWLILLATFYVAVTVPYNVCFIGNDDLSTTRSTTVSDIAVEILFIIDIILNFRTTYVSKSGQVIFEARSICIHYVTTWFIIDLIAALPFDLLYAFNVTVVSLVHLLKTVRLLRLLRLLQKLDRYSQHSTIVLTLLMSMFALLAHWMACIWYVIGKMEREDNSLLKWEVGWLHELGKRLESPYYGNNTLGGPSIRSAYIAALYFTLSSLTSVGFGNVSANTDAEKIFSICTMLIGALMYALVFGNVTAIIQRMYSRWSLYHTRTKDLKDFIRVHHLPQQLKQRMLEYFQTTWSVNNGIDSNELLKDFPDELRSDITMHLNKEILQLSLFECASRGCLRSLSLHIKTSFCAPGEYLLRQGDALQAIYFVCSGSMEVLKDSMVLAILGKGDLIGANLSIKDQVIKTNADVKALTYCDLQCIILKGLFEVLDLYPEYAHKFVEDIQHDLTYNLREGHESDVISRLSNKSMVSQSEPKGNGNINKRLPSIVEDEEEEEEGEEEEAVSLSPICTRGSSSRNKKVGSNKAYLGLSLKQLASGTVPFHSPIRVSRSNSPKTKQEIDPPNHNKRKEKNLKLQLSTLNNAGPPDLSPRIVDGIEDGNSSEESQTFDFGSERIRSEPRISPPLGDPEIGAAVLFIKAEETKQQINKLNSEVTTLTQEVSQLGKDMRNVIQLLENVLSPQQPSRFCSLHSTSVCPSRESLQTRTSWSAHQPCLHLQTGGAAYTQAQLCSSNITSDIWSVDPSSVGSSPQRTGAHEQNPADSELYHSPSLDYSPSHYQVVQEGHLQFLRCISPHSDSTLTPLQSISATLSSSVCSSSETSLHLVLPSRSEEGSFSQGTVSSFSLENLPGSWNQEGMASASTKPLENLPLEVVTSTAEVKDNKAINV

[2] = biological target: T2, Kv12.1 (Elk1) (Homo sapiens, UniProt Q96L42); assay: whole-cell patch clamp in transfected CHO cells; type: cell-based
T2 sequence (Q96L42 1-1107): T1 sequence (Q96L42 1-1107 H462Y) with Y462H

C=C[C@H]1C[N@@]2CC[C@H]1C[C@H]2[C@H](O)c1ccnc2ccc(OC)cc12 [quinine]
IC50 [1]: 56 µM
IC50 [2]: 970 µM
